The source of these data is ChEMBL document CHEMBL4340572, “Gentiopicroside isolated from Gentiana scabra Bge. inhibits adipogenesis in 3T3-L1 cells and reduces body weight in diet-induced obese mice” (Bioorg Med Chem Lett, 2019).

Data set [1] concerns 3T3-L1. Description: Cytotoxicity against mouse 3T3L1 cells assessed as reduction in cell viability up to 10 uM. It counts as cell-based.
In data set [2] the test system is 3T3-L1. As to the kind of experiment: Anti-adipogenic activity in mouse 3T3L1 cells grown in differentiation media assessed as decrease in lipid accumulation up to 10 uM incubated for 8 days by Oil Red O staining based method. Format: functional.
Data set [3] deals with 3T3-L1. Description: Inhibition of cell differentiation in mouse 3T3L1 cells assessed as reduction in pre-adipocyte differentiation into matured adipocytes at 5 uM incubated for 8 days followed by compound wash out measured by oil red O staining based method relative to control. Format: functional. To be noted: 3T3-L1, 192 h.
The test system of data set [4] is 3T3-L1. Description: Downregulation of PPARgamma mRNA expression in mouse 3T3L1 cells up to 10 uM incubated for 8 days followed by compound wash out measured by RT-PCR method. It counts as functional, cell-based.
The subject of data set [5] is 3T3-L1. Description: Downregulation of C/EBPalpha mRNA expression in mouse 3T3L1 cells up to 10 uM incubated for 8 days followed by compound wash out measured by RT-PCR method. It counts as functional, cell-based.
Data set [6] concerns 3T3-L1. As to the kind of experiment: Downregulation of LPL mRNA expression in mouse 3T3L1 cells up to 10 uM incubated for 8 days followed by compound wash out measured by RT-PCR method. Format: functional, cell-based.
Data set [7] has as its system 3T3-L1. As to the kind of experiment: Downregulation of FABP4 mRNA expression in mouse 3T3L1 cells up to 10 uM incubated for 8 days followed by compound wash out measured by RT-PCR method. It counts as functional, cell-based.
In data set [8] the test system is 3T3-L1. Description: Anti-adipogenic activity in mouse 3T3L1 cells grown in differentiation media assessed as decrease in lipid accumulation incubated for 8 days by Oil Red O staining based method. Format: functional, cell-based.
For data set [9], the system named is 3T3-L1. As to the kind of experiment: Downregulation of DGAT2 mRNA expression in mouse 3T3L1 cells up to 10 uM incubated for 8 days followed by compound wash out measured by RT-PCR method. Format: functional, cell-based.
In data set [10] the test system is 3T3-L1. As to the kind of experiment: Antiinflammatory activity in mouse 3T3L1 cells assessed as reduction in IL-6 mRNA expression up to 10 uM incubated for 8 days followed by compound wash out measured by RT-PCR method. It counts as functional, cell-based.
The test system of data set [11] is 3T3-L1. As to the kind of experiment: Antiinflammatory activity in mouse 3T3L1 cells assessed as reduction in TNFalpha mRNA expression up to 10 uM incubated for 8 days followed by compound wash out measured by RT-PCR method. It counts as functional, cell-based.
Data set [12] relates to 3T3-L1. As to the kind of experiment: Antiinflammatory activity in mouse 3T3L1 cells assessed as reduction in NFkappaB1 mRNA expression level up to 10 uM incubated for 8 days followed by compound wash out measured by RT-PCR method. It counts as functional, cell-based.
The subject of data set [13] is 3T3-L1. Description: Downregulation of SCD1 mRNA expression in mouse 3T3L1 cells up to 10 uM incubated for 8 days followed by compound wash out measured by RT-PCR method. It counts as functional, cell-based.
Data set [14] has as its system 3T3-L1. As to the kind of experiment: Downregulation of FAS mRNA expression in mouse 3T3L1 cells up to 10 uM incubated for 8 days followed by compound wash out measured by RT-PCR method. It counts as functional, cell-based.
The subject of data set [15] is 3T3-L1. As to the kind of experiment: Downregulation of SREBP-1c mRNA expression in mouse 3T3L1 cells up to 10 uM incubated for 8 days followed by compound wash out measured by RT-PCR method. Format: functional, cell-based.
For data set [16], the system named is Mus musculus. Description: Antiobesity activity in HFD-induced obese C57BL/6N mouse model assessed as decrease in body weight at 50 mg/kg, po administered once daily for 12 weeks and measured every week for 12 weeks. It counts as functional, organism-based.
In data set [17] the test system is Mus musculus. As to the kind of experiment: Antiobesity activity in HFD-induced obese C57BL/6N mouse model assessed as decrease in epididymal fat mass level at 50 mg/kg, po administered once daily for 12 weeks. Format: functional, organism-based.
For data set [18], the system named is Mus musculus. Description: Antiobesity activity in HFD-induced obese C57BL/6N mouse model assessed as decrease in visceral fat mass at 50 mg/kg, po administered once daily for 12 weeks. It counts as functional, organism-based.
Data set [19] has as its system Mus musculus. As to the kind of experiment: Antiobesity activity in HFD-induced obese C57BL/6N mouse model assessed as reduction in epididymal WAT adipocyte size at 50 mg/kg, po administered once daily for 12 weeks by H and E staining based microscopic method. It counts as functional, organism-based.

Active and inactive are the calls of the source. The calls are words filed in the database; no cut-off is given here.

By inhibition is commonly meant the drop in the measured response relative to a control, in per cent. Turning to `C=C[C@@H]1C2=CCOC(=O)C2=CO[C@H]1O[C@@H]1O[C@H](CO)[C@@H](O)[C@H](O)[C@H]1O` [GENTIOPICROSIDE], the Activity entry with 3T3-L1 [1] was “Non-Toxic”; in the data set on 3T3-L1 [8], “Dose-dependent effect”. Further, the “inhibition (INH)” value in the data set on 3T3-L1 [2] is “<=64%”. Besides, the inhibition at 5 µM with 3T3-L1 [3] was at most 72%. Besides, the outcome in the data set on 3T3-L1 [4], in the data set with 3T3-L1 [5], with 3T3-L1 [6], with 3T3-L1 [7], in the data set on 3T3-L1 [9] and in the data set with 3T3-L1 [10] was Active. For the same compound, the outcome in the data set with 3T3-L1 [11], with 3T3-L1 [12], in the data set with 3T3-L1 [13], in the data set on 3T3-L1 [14], in the data set on 3T3-L1 [15] and in the data set on Mus musculus [16] was Active. Further, the outcome in the data set on Mus musculus [17], in the data set with Mus musculus [18] and in the data set with Mus musculus [19] was Active.
